Laboratory results: US20220185811A1, “FGFR4 KINASE INHIBITOR AND PREPARATION METHOD THEREFOR AND USE THEREOF” (SHOUYAO HOLDINGS (BEIJING) CO., LTD., priority 2019, published 2022)
Where a name gives a salt, the structure may show the parent alone. Read-outs that look alike come from different tables or passages of the source.

Key:
FGFR-4 kinase = FGFR-4 kinase (Homo sapiens, UniProt P22455); test: FGFR-4 kinase activity, homogeneous time-resolved fluorescence (HTRF) method; assay type: biochemical; settings: ATP 25 μM, FGFR-4 kinase 1 nM, read-out: FGFR4 IC50
Procedure: 1. In vitro determination of the protein activity of compounds: The FGFR-4 kinase activity detection platform was established by the homogeneous time-resolved fluorescence (HTRF) method, and the activity of the compound was determined. 1000 μM compounds were subjected to 3-fold gradient dilution in 100% DMSO 11 times (12 concentrations in total), 4 μL diluent from each concentration was added to 96 μL of reaction buffer (50 mM HEPES, pH 7.4, 5 mM MnCl2, 0.1 mM NaVO3, 0.001% Tween-20, 0.01% BAS, 1 mM DTT) and mixed well, as a 4* compound (final concentration of 0.017 nM-1000 nM) for later use. 2 * FGFR-4 kinase (final concentration of 1 nM) was formulated using reaction buffer and 4*substrate (ATP+TK peptide) (TK peptide, HTRF® KinEASETM-TK, purchased from Cisbio, TK peptide, final concentration of 1 μM, ATP final concentration of 25 μ M) was formulated using reaction buffer. 2.5 μL of 4*compound and then 5 μL of 2 * FGFR-4 kinase were added to a 384-well plate (OptiPlate-384, purchased from PerkinElmer), the mixture was mixed by centrifugation, and 2.5 μL of 4 * substrate mixture was added to start the reaction (total reaction volume of 10 µL). The 384-well plate was placed in an incubator 23° C. and stirred for 60 min before the reaction was stopped by the addition of 5 μL of Eu^3+cryptate-labeled anti-phosphotyrosine antibody (TRF® KinEASE™-TK, purchased from Cisbio) and 5 μL of Streptavidin-XL-665 (HTRF® KinEASE™-TK, purchased from Cisbio). After incubation in the incubator for 1 h, fluorescence values (excitation at 320 nm, detecting emitted light at 665 nm and 620 nm, and a ratio of the two as enzyme activity) were read on Envision (purchased from PerkinElmer). The enzyme activity of each compound was measured at 12 concentrations, and the ICso value of the compound was calculated using GraphPad Prism 5.0 software.
The FGFR-4 kinase activity detection platform was established by homogeneous time-resolved fluorescence (HTRF) method, and the activity of compound was determined. 1000 μM compounds were subjected to 3-fold gradient dilution in 100% DMSO 11 times (12 concentrations in total), 4 μL of diluent from each concentration was added to 96 μL of reaction buffer (50 mM HEPES, pH 7.4, 5 mM MnCl2, 0.1 mM NaVO3, 0.001% Tween-20, 0.01% BAS, 1 mM DTT) and mixed well, as a 4* compound (final concentration of 0.017 nM-1000 nM) for later use. 2 * FGFR-4 kinase (final concentration of 1 nM) was formulated using reaction buffer and 4*substrate (ATP+TK peptide)(TK peptide, HTRF® KinEASE™-TK, purchased from Cisbio, TK peptide, final concentration of 1 μM, ATP final concentration of 25 μM) was formulated using reaction buffer. 2.5 μL of 4 * compound and then 5 μL of 2 * FGFR-4 kinase were added to a 384-well plate (OptiPlate-384, purchased from PerkinElmer), the mixture was mixed by centrifugation, and 2.5 μL of 4 * substrate mixture was added to start the reaction (total reaction volume of 10 μL). The 384-well plate was placed in an incubator 23° C. and stirred for 60 min before the reaction was stopped by the addition of 5 μL of Eu^3+cryptate-labled anti-phosphotyrosine antibody (TRF® KinEASE™-TK, purchased from Cisbio) and 5 μL of Streptavidin-XL-665 (HTRF® KinEASE™-TK, purchased from Cisbio). After incubation in the incubator for 1 h, fluorescence values (excitation at 320 nm, detecting emitted light at 665 nm and 620 nm, and a ratio of the two as enzyme activity) were read on Envision (purchased from PerkinElmer). The enzyme activity of each compopund was measured at 12 concentrations, and the ICso value of the compound was calculated using GraphPad prism 5.0 software.

[1] = system: Human hepatoma cells Hep3b; test: Cell proliferation inhibition, Cell Titer-Glo; assay type: cell-based; settings: Hep3B, 72 h
Procedure: 2. Determination of cell proliferation activity of compounds:
Cell Titer-Glo ® detection reagent from Promega was used to establish the suspension cell proliferation inhibition screening method. Human hepatoma cells Hep3b (Xiehe Cell Research Center) were cultured in 25 cm^2 or 75 cm^2 plastic tissue culture flasks (Corning®) filled with MEM (Gibco®) medium supplemented with 10% fetal bovine serum (Hyclone®) under 37° C., 95% air and 5% CO2, and subcultured 2-3 times a week.
(§1) Hep3b cells were seeded in a 96-well cell culture plate (Corning®) at a density of 3×10^3 cells/well, […], and cultured under 37° C., 95% air, and 5% CO2. After 24 h the test compound was added: 10 mM compounds (dissolved in DMSO) were subjected to 3-fold gradient dilution in DMSO , […] of diluent from each concentration was added to […] of serum-free medium, and finally […] of compound diluted in the medium was added to the plate seeded with cells. The final concentration of DMSO in the cell culture medium was 0.1% and the final concentration of the test compound was 0.3 nM-[…]. The above cells were incubated for 3 days under 37° C.
After 3 days, the cell viability assay was performed by the Cell Titer-Glo (Promega) kit, and finally, the inhibitory concentration 50% of the compound on cell proliferation, i.e. the IC 50 value, was calculated by the GraphPad Prism 5.0 program.
as §1, with “DMSO,” for “DMSO ,”, “finally,” for “finally”, “of” for “of the”
After 3 days, the cell viability assay was performed by the Cell Titer-Glo (Promega) kit, and finally the inhibitory concentration 50% of the compound on cell proliferation, i.e. the IC 50 value, was calculated by the GraphPad Prism 5.0 program.

[2] = Pharmacokinetics in male SD rats, single intragastric administration; assay type: in vivo; settings: rat, po, 5 mg/kg suspension, plasma, first PK table
Procedure: (§2) Male SD rats (Beijing Vital River Laboratory Animal Technology Co., Ltd.) were divided into groups of 3 rats each. The rats were subjected to 5 mg/kg suspension of the test sample by single intragastric administration, respectively. Animals were fasted overnight prior to the experiment from 10 h before dosing to 4 h after dosing. Blood was collected 0.25, 0.5, 1, 2, 4, 6, 8, and 24 h after administration. After isoflurane anesthesia using a small animal anesthesia machine, 0.3 mL of whole blood samples was collected from the fundus venous plexus, placed in a heparin anticoagulant tube, and were centrifuged at 4° C., 4000 rpm for 5 min, plasma was transferred to the centrifuge tube, and stored at −80° C. until analysis. Samples in the plasma were extracted using protein precipitation and the extracts were analyzed by LC/MS/MS.
as §2, with “taken through” for “collected from”, “-80°” for “−80°”

FGFR-4 kinase, sequence (P22455 22-802): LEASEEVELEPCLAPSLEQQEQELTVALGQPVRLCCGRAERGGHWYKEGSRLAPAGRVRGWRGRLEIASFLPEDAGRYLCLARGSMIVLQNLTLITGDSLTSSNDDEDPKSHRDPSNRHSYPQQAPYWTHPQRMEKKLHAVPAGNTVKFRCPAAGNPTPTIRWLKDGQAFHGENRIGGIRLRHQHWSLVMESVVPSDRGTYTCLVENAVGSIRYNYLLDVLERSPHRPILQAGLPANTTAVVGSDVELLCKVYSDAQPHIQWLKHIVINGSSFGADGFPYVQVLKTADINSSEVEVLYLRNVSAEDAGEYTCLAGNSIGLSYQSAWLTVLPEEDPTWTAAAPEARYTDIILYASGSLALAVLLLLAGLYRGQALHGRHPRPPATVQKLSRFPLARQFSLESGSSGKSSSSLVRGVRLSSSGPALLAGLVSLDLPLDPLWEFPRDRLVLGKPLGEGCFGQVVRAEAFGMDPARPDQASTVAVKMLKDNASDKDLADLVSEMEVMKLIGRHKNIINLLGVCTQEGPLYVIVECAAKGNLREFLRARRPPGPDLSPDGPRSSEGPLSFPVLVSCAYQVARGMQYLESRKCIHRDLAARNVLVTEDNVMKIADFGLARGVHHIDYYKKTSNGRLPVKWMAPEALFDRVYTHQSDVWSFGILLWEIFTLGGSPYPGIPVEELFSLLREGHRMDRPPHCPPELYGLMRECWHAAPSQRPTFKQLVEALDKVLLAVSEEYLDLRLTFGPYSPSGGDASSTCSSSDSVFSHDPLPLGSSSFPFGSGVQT

Row | SMILES | IC50 (FGFR-4 kinase; Table 1) | IC50 ([1]; Table 1, 3 days incubation) | also measured
1 | C=CC(=O)Nc1cc(-c2cc3c(cn2)cc(-c2c(Cl)c(OC)cc(OC)c2Cl)c2nccn23)c(OC)cc1N1CCNC2(CC2)C1 [Example 9, N-(5-(4-(2,6-dichloro-3,5-dimethoxyphenyl)imidazo[1,2-a][1,6]naphthyridin-8-yl)-4-methoxy-2-(4,7-diazaspiro[2.5]octan-7-yl)phenyl)acrylamide trifluoroacetate] | 2.43 nM | 74.7 nM | 
2 | C=CC(=O)Nc1cc(-c2cc3c(cn2)cc(-c2c(Cl)c(OC)cc(OC)c2Cl)c2nccn23)c(OC)cc1N1CC2COCC2C1 (stereo not drawn) [Example 4, N-(5-(4-(2,6-dichloro-3,5-dimethoxyphenyl)imidazo[1,2-a][1,6]naphthyridin-8-yl)-4-methoxy-2-(tetrahydro-1H-furo[3,4-c]pyrrol-5(3H)-yl)phenyl)acrylamide] | 2.25 nM |  | 
3 | C=CC(=O)Nc1cc(-c2cc3c(cn2)cc(-c2c(Cl)c(OC)cc(OC)c2Cl)c2nccn23)c(OC)cc1N1CCC(N(C)C)CC1 [Example 67] |  |  | IC50 (FGFR-4 kinase; Table 2): 0.4 nM; IC50 ([1]; Table 2, 3 days incubation): 81.3 nM
4 | C=CC(=O)Nc1cc(-c2cc3c(cn2)cc(-c2c(Cl)c(OC)cc(OC)c2Cl)c2nccn23)c(OC)cc1N1CC2CCC(C1)N2C(C)=O [Example 7, N-(2-(8-acetyl-3,8-diazabicyclo[3 .2.1]octan-3-yl)-5-(4-(2,6-dichloro-3,5-dimethoxyphenyl)imidazo[1,2-a][1,6]naphthyridin-8-yl)-4-methoxyphenyl)acrylamide] | 1.74 nM | 83.6 nM | 
5 | C=CC(=O)Nc1cc(-c2cc3c(cn2)cc(-c2c(Cl)c(OC)cc(OC)c2Cl)c2nccn23)c(OC)cc1N1CCC(N2CCN(C)CC2)CC1 [Example 64, N-(5-(4-(2,6-dichloro-3,5-dimethoxyphenyl)imidazo[1,2-a][1,6]naphthyridin-8-yl)-4-methoxy-2-(4-(4-methylpiperazin-1-yl)piperidin-1-yl)phenyl)acrylamide] |  |  | IC50 (FGFR-4 kinase; Table 2): 0.3 nM; IC50 ([1]; Table 2, 3 days incubation): 69.7 nM
6 | C=CC(=O)Nc1cc(-c2cc3c(cn2)cc(-c2c(Cl)c(OC)cc(OC)c2Cl)c2nccn23)c(OC)cc1N1CCN(C2COC2)CC1 [Example 65, N-(5-(4-(2,6-dichloro-3,5-dimethoxyphenyl)imidazo[1,2-a][1,6]naphthyridin-8-yl)-4-methoxy-2-(4-(oxetan-3-yl)piperazin-1-yl)phenyl)acrylamide] |  |  | IC50 (FGFR-4 kinase; Table 2): 0.9 nM; IC50 ([1]; Table 2, 3 days incubation): 22.3 nM
7 | C=CC(=O)Nc1cc(-c2cc3c(cn2)cc(-c2c(Cl)c(OC)cc(OC)c2Cl)c2nccn23)c(OC)cc1N1CCN(C(C)=O)CC1 [Example 37, N-(2-(4-acetylpiperazin-1-yl)-5-(4-(2,6-dichloro-3,5-dimethoxyphenyl)imidazo[1,2-a][1,6]naphthyridin-8-yl)-4-methoxyphenyl)acrylamide] | 2.16 nM | 107 nM | 
8 | C=CC(=O)Nc1cc(-c2cc3c(cn2)cc(-c2c(Cl)c(OC)cc(OC)c2Cl)c2nccn23)c(OC)cc1N1CCC2(COC2)C1 [Example 20, N-(5-(4-(2,6-dichloro-3,5-dimethoxyphenyl)imidazo[1,2-a][1,6]naphthyridin-8-yl)-4-methoxy-2-(2-oxa-6-azaspiro[3.4]octan-6-yl)phenyl)acrylamide] | 2.54 nM |  | 
9 | C=CC(=O)Nc1cc(-c2cc3c(cn2)cc(-c2c(Cl)c(OC)cc(OC)c2Cl)c2nccn23)c(OC)cc1N1CCC2(CCN(C)C2)C1 (stereo not drawn) [Example 22] | 5.61 nM |  | 
10 | C=CC(=O)Nc1cc(-c2cc3c(cn2)cc(-c2c(Cl)c(OC)cc(OC)c2Cl)c2nccn23)c(OC)cc1N1CCO[C@@H](C)C1 [Example 38, (S)-N-(5-(4-(2,6-dichloro-3,5-dimethoxyphenyl)imidazo[1,2-a][1,6]naphthyridin-8-yl)-4-methoxy-2-(2-methylmorpholino)phenyl)acrylamide] | 5.07 nM |  | 
11 | C=CC(=O)Nc1cc(-c2cc3c(cn2)cc(-c2c(Cl)c(OC)cc(OC)c2Cl)c2nccn23)c(OC)cc1N1CCOC2(CC2)C1 [Example 5, N-(5-(4-(2,6-dichloro-3,5-dimethoxyphenyl)imidazo[1,2-a][1,6]naphthyridin-8-yl)-4-methoxy-2-(4-oxa-7-azaspiro[2.5]octan-7-yl)phenyl)acrylamide] |  | 20.3 nM | 
12 | CC#CC(=O)Nc1cc(-c2cc3c(cn2)cc(-c2c(Cl)c(OC)cc(OC)c2Cl)c2nccn23)c(OC)cc1N1C[C@@H]2C[C@H]1CO2 [Example 27, N-(2-((1S,4S)-2-oxa-5-azabicyclo[2.2.1]heptan-5-yl)-5-(4-(2,6-dichloro-3,5-dimethoxyphenyl)imidazo[1,2-a][1,6]naphthyridin-8-yl)-4-methoxyphenyl)but-2-ynamide] |  |  | AUC(0-inf) [2]: 1860 ng·h/mL; Cmax [2]: 452 ng/mL; Tmax [2]: 3.33 h; half-life ([2]; read-out: T1/2 (converted)): 2.73 h
